Results reported in patent publication US20080221161A1, “HETEROCYCLIC MODULATORS OF TGR5 FOR TREATMENT OF DISEASE” (KALYPSYS, INC., priority 2007, published 2008).

Target: T1, human TGR5 (Homo sapiens, UniProt Q8TDU6)
T1 construct: expressed in transfected cells; host or cells: HEK-293 cells, stably transfected (pcDNA 3.1, Fugene6, geneticin selection)
T1 sequence (Q8TDU6 1-330): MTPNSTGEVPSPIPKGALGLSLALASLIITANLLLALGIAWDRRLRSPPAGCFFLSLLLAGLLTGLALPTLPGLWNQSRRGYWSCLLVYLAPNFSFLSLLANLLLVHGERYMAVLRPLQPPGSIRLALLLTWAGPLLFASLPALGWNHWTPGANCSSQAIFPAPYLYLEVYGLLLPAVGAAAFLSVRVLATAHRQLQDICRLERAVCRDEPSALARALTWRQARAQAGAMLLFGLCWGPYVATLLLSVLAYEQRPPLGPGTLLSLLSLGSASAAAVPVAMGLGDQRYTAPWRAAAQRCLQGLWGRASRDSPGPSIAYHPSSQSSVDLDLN
Assay: cAMP production assay in HEK293-TGR5 cells
Type: cell-based
Settings: HEK293 cells stably expressing human TGR5; 30 minutes stimulation; LANCE cAMP TR-FRET; read-out: cAMP Production in 293-TGR5 Cells EC50
Description: HEK293 cells stably expressing TGR5 (HEK293-TGR5) were established by stably transfecting HEK-293 cells with an expression vector (pcDNA 3.1, Invetrogen) inserted with human TGR5 cDNA using Fugene6 (Roche, Indianapolis, Ind.) according to conventional methods. Cells were grown in DMEM (invitrogen, Carlsbad, Calif.) supplemented with 10% FBS, 1% penicillin/streptomycin under geneticin selection. The presence of TGR5 transcripts in these cells was confirmed using branched DNA (bDNA, Genospectra, Inc., Fremont Calif.) following the manufacturer's protocol and using specific probes for human TGR5. cAMP production assay was performed in high throughput 1536 well format using LANCE cAMP detection kit (Perkin Elmer Inc., Boston, Mass.) according to the manufacturer's protocol. Briefly, HEK293-TGR5 cells were harvested using non-enzymatic cell dissociation buffer (Invitrogen, Carlsbad, Calif.) and suspended in DMEM supplemented with 0.1% FBS at a density of 800,000 cells/ml. Alexa antibody was added to the cell suspension, and 4 ul of the mixture was dispensed in white opaque tissue culture treated Greiner 1536 well plates (USA Scientific, Inc., Ocala, Fla.). After an overnight incubation at 37C in an atmosphere of 10% CO2 and 95% humidity, 1 ul of 5 mM IBMX (Sigma, St. Louis, Mo.) solution in DMEM was dispensed for a final concentration of 1 mM. Cells were then stimulated with test compounds for 30 minutes, after which time 5 ul of detection reagent was added and incubated for 1-7 hrs at room temperature. TR-FRET signal was detected using the Viewlux (Perkin Elmer Inc., Boston Mass.). EC50 values were determined using Graph Pad Prizm analysis (GraphPad Software, Inc).

Row | Compound | EC50 [µM]
1 | COc1ccc2cc(CNCCc3ccc(Br)cc3)c(-c3csc4ccccc34)nc2c1 [Example 73, N-((2-(Benzo[b]thiophen-3-yl)-7-methoxyquinolin-3-yl)methyl)-2-(4-bromophenyl)ethanamine] | < 10
2 | COc1ccc2cc(CNCc3ccc(C(C)(C)C)cc3)c(-c3ccncc3)nc2c1 [Example 75, N-(4-tert-Butylbenzyl)-1-(7-methoxy-2-(pyridin-4-yl)quinolin-3-yl)methanamine] | < 10
3 | COc1ccc2cc(CNCc3ccc(C(F)(F)F)cc3)c(-c3ccco3)nc2c1 [Example 77, 1-(2-(Furan-2-yl)-7-methoxyquinolin-3-yl)-N-(4-(trifluoromethyl)benzyl)methanamine] | > 10
4 | COc1ccc2cc(CNCc3ccco3)c(-c3ccsc3)nc2c1 [Example 78, 1-(Furan-2-yl)-N-((7-methoxy-2-(thiophen-3-yl)quinolin-3-yl)methyl)methanamine] | < 10
5 | COc1ccc2cc(CNCCc3ccccn3)c(-c3ccncc3)nc2c1 [Example 80, N-((7-Methoxy-2-(pyridin-4-yl)quinolin-3-yl)methyl)-2-(pyridin-2-yl)ethanamine] | > 10
6 | COc1ccc2cc(CNCCCc3ccccc3)c(-c3ccncc3)nc2c1 [Example 81, N-((7-Methoxy-2-(pyridin-4-yl)quinolin-3-yl)methyl)-3-phenylpropan-1-amine] | < 10
7 | COc1ccc2cc(CN[C@H](C)c3ccc(C)cc3)c(-c3ccncc3)nc2c1 [Example 85, (R)—N-((7-Methoxy-2-(pyridin-4-yl)quinolin-3-yl)methyl)-1-p-tolylethanamine] | < 10
8 | COc1ccc2cc(CNCc3ccc(F)cc3F)c(-c3ccncc3)nc2c1 [Example 87, N-(2,4-Difluorobenzyl)-1-(7-methoxy-2-(pyridin-4-yl)quinolin-3-yl)methanamine] | < 10
9 | COc1ccc2cc(CNCc3ccc(C(F)(F)F)cc3)c(-c3ccoc3)nc2c1 [Example 90, 1-(2-(Furan-3-yl)-7-methoxyquinolin-3-yl)-N-(4-(trifluoromethyl)benzyl)methanamine] | > 10
10 | COc1ccc2cc(CNCc3ccc(F)c(Cl)c3)c(-c3ccncc3)nc2c1 [Example 92, N-(3-Chloro-4-fluorobenzyl)-1-(7-methoxy-2-(pyridin-4-yl)quinolin-3-yl)methanamine] | < 10
11 | COc1ccc2cc(CNCCc3c[nH]c4ccc(O)cc34)c(-c3ccncc3)nc2c1 [Example 93, 3-(2-((7-Methoxy-2-(pyridin-4-yl)quinolin-3-yl)methylamino)ethyl)-1H-indol-5-ol] | > 10
12 | COc1ccc2cc(CNCc3ccc(C(F)(F)F)cc3)c(Sc3ccncc3)nc2c1 [Example 94, 1-(7-Methoxy-2-(pyridin-4-ylthio)quinolin-3-yl)-N-(4-(trifluoromethyl)benzyl)methanamine] | > 10
13 | COc1ccc2cc(CCNCCc3ccc(Br)cc3)c(-c3ccsc3)nc2c1 [Example 102, N-(4-bromophenethyl)-2-(7-methoxy-2-(thiophen-3-yl)quinolin-3-yl)ethanamine] | > 10
14 | Oc1ccc2cc(CNCCc3ccc(Br)cc3)c(-c3ccco3)nc2c1 [Example 103, 3-((4-Bromophenethylamino)methyl)-2-(furan-2-yl)quinolin-7-ol] | > 10
15 | Oc1ccc2nc(-c3ccsc3)c(CNCCc3ccc(Cl)cc3)cc2c1 [Example 105, 3-((4-Chlorophenethylamino)methyl)-2-(thiophen-3-yl)quinolin-6-ol] | < 10
16 | COc1ccc2cc(NCc3ccc(C(F)(F)F)cc3)c(-c3ccsc3)nc2c1 [Example 115, 7-Methoxy-2-(thiophen-3-yl)-N-(4-(trifluoromethyl)benzyl)quinolin-3-amine] | > 10
17 | COc1ccc2cc(CNCCc3ccc(Cl)cc3)c(-c3ccoc3)nc2c1 [Example 117, 2-(4-Chlorophenyl)-N-((2-(furan-3-yl)-7-methoxyquinolin-3-yl)methyl)ethanamine] | > 10

Further lines, results first:

Row | EC50 [µM] | Compound
18 | > 10 | COc1ccc2cc(CNCc3cccnc3)c(-c3ccsc3)nc2c1 [Example 72, 1-(7-Methoxy-2-(thiophen-3-yl)quinolin-3-yl)-N-(pyridin-3-ylmethyl)methanamine]
19 | > 10 | COc1cc(OC)c(CNCc2cc3ccc(OC)cc3nc2-c2ccncc2)c(OC)c1 [Example 74, 1-(7-Methoxy-2-(pyridin-4-yl)quinolin-3-yl)-N-(2,4,6-trimethoxybenzyl)methanamine]
20 | < 10 | COc1ccc2cc(CNCCc3cccnc3)c(-c3ccncc3)nc2c1 [Example 76, N-((7-Methoxy-2-(pyridin-4-yl)quinolin-3-yl)methyl)-2-(pyridin-3-yl)ethanamine]
21 | < 10 | Oc1ccc2cc(CNCc3ccc(C(F)(F)F)cc3)c(-c3ccsc3)nc2c1 [Example 79, 2-(Thiophen-3-yl)-3-((4-(trifluoromethyl)benzylamino)methyl)quinolin-7-ol]
22 | < 10 | COc1ccc2cc(CNCc3ccc(C(F)(F)F)cc3)c(Oc3cccnc3)nc2c1 [Example 83, 1-(7-methoxy-2-(pyridin-3-yloxy)quinolin-3-yl)-N-(4-(trifluoromethyl)benzyl)methanamine]
23 | > 10 | CN(C)c1ccc2cc(CNCc3ccc(C(F)(F)F)cc3)c(-c3ccsc3)nc2c1 [Example 88, N,N-Dimethyl-2-(thiophen-3-yl)-3-((4-(trifluoromethyl)benzylamino)methyl)quinolin-7-amine]
24 | > 10 | CN(C)c1ccc2cc(CNCCc3ccc(Br)cc3)c(-c3ccsc3)nc2c1 [Example 89, 3-((4-Bromophenethylamino)methyl)-N,N-dimethyl-2-(thiophen-3-yl)quinolin-7-amine]
25 | > 10 | COc1ccc2cc(CNCCc3ccc(Cl)cc3)c(Sc3ccncc3)nc2c1 [Example 95, 2-(4-Chlorophenyl)-N-((7-methoxy-2-(pyridin-4-ylthio)quinolin-3-yl)methyl)ethanamine]
26 | < 10 | Oc1ccc2cc(CNCCc3ccc(Br)cc3)c(-c3ccncc3)nc2c1 [Example 96, 3-((4-Bromophenethylamino)methyl)-2-(pyridin-4-yl)quinolin-7-ol]
27 | < 10 | Oc1ccc2cc(CNCCc3ccc(Br)cc3)c(-c3ccccc3)nc2c1 [Example 100, 3-((4-Bromophenethylamino)methyl)-2-phenylquinolin-7-ol]
28 | < 10 | Oc1ccc2cc(CNCCc3ccc(Cl)c(Cl)c3)c(-c3ccsc3)nc2c1 [Example 101, 3-((3,4-Dichlorophenethylamino)methyl)-2-(thiophen-3-yl)quinolin-7-ol]
29 | > 10 | Oc1ccc2cc(CCNCCc3ccc(Br)cc3)c(-c3ccsc3)nc2c1 [Example 104, 3-(2-(4-Bromophenethylamino)ethyl)-2-(thiophen-3-yl)quinolin-7-ol]
30 | > 10 | COc1ccc2cc(CCNCc3ccc(C(F)(F)F)cc3)c(-c3ccsc3)nc2c1 [Example 106, 2-(7-Methoxy-2-(thiophen-3-yl)quinolin-3-yl)-N-(4-(trifluoromethyl)benzyl)ethanamine]
31 | > 10 | Oc1ccc2cc(CCNCc3ccc(C(F)(F)F)cc3)c(-c3ccsc3)nc2c1 [Example 107, 2-(Thiophen-3-yl)-3-(2-(4-(trifluoromethyl)benzylamino)ethyl)quinolin-7-ol]
32 | > 10 | Oc1ccc2cc(CNCCc3ccc(Br)cc3)c(-c3cccs3)nc2c1 [Example 108, 3-((4-Bromophenethylamino)methyl)-2-(thiophen-2-yl)quinolin-7-ol]
33 | > 10 | Oc1ccc2cc(CNCCc3ccc(Br)cc3)c(-c3ccoc3)nc2c1 [Example 109, 3-((4-Bromophenethylamino)methyl)-2-(furan-3-yl)quinolin-7-ol]
34 | > 10 | Oc1ccc2nc(-c3ccsc3)c(CNCc3ccc(C(F)(F)F)cc3)cc2c1 [Example 111, 2-(Thiophen-3-yl)-3-((4-(trifluoromethyl)benzylamino)methyl)quinolin-6-ol]
35 | < 10 | Sc1ccc2cc(CNCCc3ccc(Br)cc3)c(-c3ccsc3)nc2c1 [Example 114, 3-((4-Bromophenethylamino)methyl)-2-(thiophen-3-yl)quinoline-7-thiol]
36 | < 10 | COc1ccc2cc(NCCc3ccc(Br)cc3)c(-c3ccsc3)nc2c1 [Example 116, N-(4-Bromophenethyl)-7-methoxy-2-(thiophen-3-yl)quinolin-3-amine]
